One assay deals with T1, AdeJ (Acinetobacter baumannii, UniProt Q2FD94).
T1 construct: native chromosomal AdeJ in A. baumannii cells (other RND pumps present); isogenic point mutants by allelic exchange; with Membrane fusion protein AdeI; Outer membrane efflux protein AdeK
Kind of assay: antibiotic MIC and checkerboard in A. baumannii cells. The following applies: 40 µM EPI. The class given is cell-based.

The next assay has as its target T2, AcrB (AcrAB-TolC) (Escherichia coli, UniProt P31224).
T2 construct: full-length RND pump in E. coli cells; strain only in supplement; with Multidrug efflux pump subunit AcrA; Outer membrane protein TolC
Kind of assay: antibiotic boosting in E. coli cells. The class given is cell-based.

The target in the next assay is T3, AdeIJK (AdeJ) (Acinetobacter baumannii, UniProt Q2FD94).
T3 construct: adeIJK operon under acrA promoter in chromosome of E. coli ΔacrAB; tripartite RND pump; with Membrane fusion protein AdeI; Outer membrane efflux protein AdeK
T3 sequence (Q24LT6 entry or part of it): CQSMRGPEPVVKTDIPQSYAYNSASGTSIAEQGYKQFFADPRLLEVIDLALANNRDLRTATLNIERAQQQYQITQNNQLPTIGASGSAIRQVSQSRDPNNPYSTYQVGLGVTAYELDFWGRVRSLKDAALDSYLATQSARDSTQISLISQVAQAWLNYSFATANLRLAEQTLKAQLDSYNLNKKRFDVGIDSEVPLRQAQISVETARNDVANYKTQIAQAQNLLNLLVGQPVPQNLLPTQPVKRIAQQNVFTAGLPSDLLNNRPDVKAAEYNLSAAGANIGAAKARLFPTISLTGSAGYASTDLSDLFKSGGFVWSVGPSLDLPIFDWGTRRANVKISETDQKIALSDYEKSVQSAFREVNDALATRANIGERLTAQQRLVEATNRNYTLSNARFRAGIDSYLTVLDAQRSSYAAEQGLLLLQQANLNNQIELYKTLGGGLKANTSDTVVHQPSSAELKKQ
T3 sequence (Q2FD95 entry or part of it, further chain): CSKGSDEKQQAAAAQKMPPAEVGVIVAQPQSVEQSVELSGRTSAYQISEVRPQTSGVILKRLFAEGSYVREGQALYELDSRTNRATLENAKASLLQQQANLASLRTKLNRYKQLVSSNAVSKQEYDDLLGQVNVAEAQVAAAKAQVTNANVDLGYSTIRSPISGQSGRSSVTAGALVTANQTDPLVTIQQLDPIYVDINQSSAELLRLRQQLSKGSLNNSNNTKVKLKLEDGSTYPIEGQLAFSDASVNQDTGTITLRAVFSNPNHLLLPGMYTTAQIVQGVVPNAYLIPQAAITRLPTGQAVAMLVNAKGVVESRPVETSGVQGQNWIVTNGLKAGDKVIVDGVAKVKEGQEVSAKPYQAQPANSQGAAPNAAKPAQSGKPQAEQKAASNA
T3 sequence (Q2FD94 entry or part of it): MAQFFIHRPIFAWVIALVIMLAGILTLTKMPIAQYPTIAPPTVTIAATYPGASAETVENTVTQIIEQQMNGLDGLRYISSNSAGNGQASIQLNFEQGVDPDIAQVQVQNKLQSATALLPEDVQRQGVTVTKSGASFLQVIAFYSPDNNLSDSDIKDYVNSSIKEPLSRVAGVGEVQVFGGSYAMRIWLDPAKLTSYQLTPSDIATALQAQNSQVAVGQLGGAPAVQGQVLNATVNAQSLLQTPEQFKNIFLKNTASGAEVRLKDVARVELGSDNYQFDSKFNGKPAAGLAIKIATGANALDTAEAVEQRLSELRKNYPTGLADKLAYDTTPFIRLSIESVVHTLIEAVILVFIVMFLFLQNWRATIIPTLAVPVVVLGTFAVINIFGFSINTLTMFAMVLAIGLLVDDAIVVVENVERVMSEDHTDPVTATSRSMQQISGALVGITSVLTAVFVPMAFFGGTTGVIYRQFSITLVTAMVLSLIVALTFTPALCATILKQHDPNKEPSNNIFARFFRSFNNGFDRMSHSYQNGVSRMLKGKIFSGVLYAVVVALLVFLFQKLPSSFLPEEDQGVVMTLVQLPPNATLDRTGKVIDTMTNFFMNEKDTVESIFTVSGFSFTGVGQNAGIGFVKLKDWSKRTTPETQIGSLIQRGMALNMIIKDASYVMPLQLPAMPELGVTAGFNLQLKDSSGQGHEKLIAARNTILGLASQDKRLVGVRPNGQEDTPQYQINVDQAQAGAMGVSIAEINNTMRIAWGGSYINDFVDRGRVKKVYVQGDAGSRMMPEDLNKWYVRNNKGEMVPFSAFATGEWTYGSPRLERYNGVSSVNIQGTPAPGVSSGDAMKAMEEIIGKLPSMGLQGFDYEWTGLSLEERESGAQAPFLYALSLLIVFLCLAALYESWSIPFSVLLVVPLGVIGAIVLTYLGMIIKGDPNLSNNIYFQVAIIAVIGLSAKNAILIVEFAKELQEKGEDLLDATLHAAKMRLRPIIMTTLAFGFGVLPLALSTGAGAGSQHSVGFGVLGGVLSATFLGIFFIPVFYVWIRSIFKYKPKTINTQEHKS
Briefly: antibiotic MIC in E. coli ΔacrAB expressing adeIJK (REMA). Format: cell-based, Escherichia coli. The following applies: 40 µM EPI; fusidic acid, novobiocin, erythromycin, SDS.

For the next assay, the target named is T4, AdeFGH (AdeG) (Acinetobacter baumannii, UniProt A0A090C131).
T4 construct: adeFGH operon under acrA promoter in chromosome of E. coli ΔacrAB; tripartite RND pump; with Membrane fusion protein AdeF; Outer membrane efflux protein AdeH
Briefly: antibiotic MIC in E. coli ΔacrAB expressing adeFGH (REMA). Format: cell-based, Escherichia coli ΔacrAB. Particulars: 40 µM EPI; chloramphenicol, oxacillin, SDS.

T1 sequence (Q24LT6 entry or part of it): as the sequence (Q24LT6 entry or part of it) above
T1 sequence (Q2FD94 entry or part of it): as the sequence (Q2FD94 entry or part of it) above
T1 sequence (Q2FD95 entry or part of it, further chain): as the sequence (Q2FD95 entry or part of it, further chain) above

On to `NCc1cccc(-c2ccc3nc(N4CCNCC4)c(Cl)cc3c2)c1` [compound 1, BDM91531], for which the MIC entry at AdeJ is “antibiotic boosting in A. baumannii by BDM91531, BDM91892 or PAβN is through AdeIJK inhibition”; at AdeIJK (AdeJ), “both BDM91531 and BDM91892 can inhibit the activity of AdeFGH and AdeIJK”; at AdeFGH (AdeG), “both BDM91531 and BDM91892 can inhibit the activity of AdeFGH and AdeIJK”. On AcrB (AcrAB-TolC), this molecule gave an EC90 of 240 nM.
Regarding `NCCc1ccccc1C#Cc1cnc(N2CCNCC2)c(Cl)c1` [compound 11, BDM91892], the MIC result at AdeJ is “antibiotic boosting in A. baumannii by BDM91531, BDM91892 or PAβN is through AdeIJK inhibition”; at AdeIJK (AdeJ) it was “both BDM91531 and BDM91892 can inhibit the activity of AdeFGH and AdeIJK”; on AdeFGH (AdeG) it was “both BDM91531 and BDM91892 can inhibit the activity of AdeFGH and AdeIJK”. The molecule further returned an EC90 on AcrB (AcrAB-TolC) of 1500 nM.

What is called EC90 is the concentration at which the effect reaches the 90% level. Read a high EC90 as a need for much substance.

These data come from article PMC10594211, “Characterization of pyridylpiperazine-based efflux pump inhibitors for Acinetobacter baumannii” (JAC-Antimicrobial Resistance, 2023).
